{
  "source": "patent US7510825B2",
  "about": "“Kits and methods for detection of apoptotic cells” (NST NeuroSurvival Technologies Ltd, priority 2000, dated 2009)",
  "key": {"[1]": {"tested_on": "C26 colon carcinoma cells", "assay": "Staining by DDC of C26 colon carcinoma cells treated with BiCNU, fluorescent microscopy", "type": "cell-based", "description": "For microscopic analysis the concentration of cells should be within 1-2×10^7/ml. […] If fixation is needed, it should be performed after DDC staining. • 1. Adjusting the cells to 1-2×10^7/ml in buffer. • 2. Transferring 96 μl from the cell suspension to an eppendorf and staining the cells by adding 4 μl from the DDC solution. Incubating for 10-40 minutes at RT protected from light. • 3. A double labeling could be conducted with PI, if desired. In such a case, 1 μl is added from the PI solution. • 4, Placing the cell suspension on a glass slide. Covering the cells with a glass coverslip. Alternatively, for analyzing adherent cells, cells may grow directly on coverslip. Staining the cells by incubation with DDC (4 μl of DDC/96 μl buffer reaction) or 10-40 minutes and PI (1 μl). Covering the slide with a coverslip and visualizing the cells. […] Observing the cells under fluorescent or confocal microscope equipped with the appropriate UV filter (excitation at 360-370 nm, band pass, and emission at 420 nm, barrier filter. Using a Triple filter (Hoechst/FITC/Texas Red) allows concomitant observation of both DDC and PI. Quantitative Assay for DDC Accumulation using Fluorescene Spectroscopy\n26 colon carcinoma cells were treated with 0.5 mM BiCNU for 2 hr and stained with DDC (as detailed in the DDC protocols IIIC). Cells were analyzed by fluorescent microscope under a UV filter."}, "platelets": {"tested_on": "platelets", "assay": "Selective binding of DDC to activated platelets, flow cytometry", "type": "cell-based", "details": "10 μM DDC for 5 minutes", "description": "The selective binding of DDC to activated platelets was determined using flow cytometric (FACS) analysis. Platelet-rich plasma was obtained from healthy volunteers. 10^9 of the fresh platelets were centrifuged (5 minutes, 380×g), washed and re-suspended in Tyrode's buffer (137 mM NaCl; 2.8 mM KCl; 1 mM MgCl2, 12 mM NaHCO3; 0.4 mM Na2HPO4; 5.5 mM D-glucose and 10 mM Hepes pH 7.4; 0.35% BSA). The purified platelets were kept on ice, and served as controls.\nFor activation, 200 μl of washed platelets were incubated with a mixture of 0.05 units/ml of thrombin and 5 μg/ml collagen for 5 min. at 37°, in the presence of 2 mM CaCl2 in a final volume of 1 ml. Following incubation, the platelets were centrifuged (2 min. at 10^4 rpm) and resuspended in 1 ml of Tyrode's buffer.\nActivated and control non-treated platelets were incubated with 10 μM of DDC for 5 minutes at room temperature. […] Excitation was at 360 nm and emission was measured at 530 nm. […] While only a small fraction of the control platelets manifested binding of DDC (3.6% of the population), platelet activation caused 81% of the platelet population to acquire a marked DDC binding, reflected as a distinct shift to higher fluorescence intensity. As shown in tile FACS histogram in FIG. 21B, activation was associated with a major shift of the whole platelet population to higher fluorescence intensity. […]"}, "[2]": {"tested_on": "cardiomyocytes of the ischemic heart", "assay": "Detection by DDC of ischemic damage in the heart following ischemia-reperfusion", "type": "in vivo, mice", "details": "ischemia 40 minutes, reperfusion 90 minutes; DDC at onset of ischemia", "description": "Ischemia/Reperfusion was induced in male Swiss mice by ligation and subsequent release of a suture around the left anterior descending coronary artery. Ischemia was for 40 minutes followed by reperfusion of 90 minutes. DDC was injected to the Jugular vein at the onset of ischemia. Uptake of DDC was followed at real time in the beating heart using a Laica stereomycroscope. Pictures were taken at the end point of the reperfusion (90 minutes) and collected by Hamamatsu CCD camera. For inhibition by caspase inhibitors, animals were injected with a pan-Caspase inhibitor in two doses of 10 mg/kg given at the time of reperfusion. […] Figures (C) and (D) Cryosections prepared from the heart that was collected at the end point of the experiments DDC fluorescence can be viewed in single apoptotic cardiomyocites. This example support the role of DDC in detecting ischemic cells in the level of a single apoptotic cell."}, "[3]": {"tested_on": "hepatocytes (liver sections)", "assay": "Detection by DDC in vivo of liver-cell apoptosis induced by anti-Fas antibody", "set-up": "species or system mice", "description": "Selective detection of apoptotic cells in vivo has numerous diagnostic and therapeutic clinical applications. […] Treatment of mice with anti-Fas monoclonal agonistic antibody induces apoptosis of hepatocytes, leading to animal death of within several hours. The study included intravenous administration of DDC to anti-Fas-Ab-injected mice, as well as to control, untreated animals. Fluorescence histopathological studies were then performed to evaluate the level of DDC binding.\nFive-week-old male BALB/c mice were injected intravenously with 10 μg/animal of purified hamster anti-Fas nAb. Mice were then injected intravenously with 70 mg/Kg of DDC. Injections were performed 30 minutes after antibody treatment. Control animals were injected with DDC only, without antibody administration. All animals were sacrificed three hours after administration of the antibody, followed by organ removal. Liver was sectioned transversely across the mid-portion of each lobe, dipped immediately into liquid nitrogen, and then transferred to −80° C. for 24 hours. Organs were then transferred into OCT solution, and cryosections (5 μm) were prepared. These sections were taken for fluorescent microscopy. Parallel sections were stained with hematoxylin/eosin (H&E), for simultaneous evaluation of the characteristic apoptotic morphology of the cells manifesting DDC binding."}},
  "data": [
    {"molecule": "CN(C)c1cccc2c(S(=O)(=O)NC(CSSCC(NS(=O)(=O)c3cccc4c(N(C)C)cccc34)C(=O)O)C(=O)O)cccc12", "note": "(stereo not shown) [DDC]", "values": [
      {"measurement": "stained cells in culture", "setting": "[1]; 0.5 mM BiCNU for 2 hr", "result": "marked increase in the number of the stained cells"},
      {"measurement": "stained cells in culture", "setting": "[1]; control culture", "result": "small percentage of stained cells"},
      {"measurement": "fraction of platelet population binding DDC", "setting": "platelets; control platelets", "result": 3.6, "unit": "%"},
      {"measurement": "fraction of platelet population binding DDC", "setting": "platelets; platelets activated by thrombin and collagen", "result": 81, "unit": "%"},
      {"measurement": "uptake of DDC in cardiomyocytes", "setting": "[2]", "result": "identified in individual cadiomyocites"},
      {"measurement": "binding of DDC in liver sections", "setting": "[3]; animals treated with anti-Fas Ab 10 μg/animal, 70 mg/Kg DDC i.v.", "result": "marked, specific binding"},
      {"measurement": "binding of DDC in liver sections", "setting": "[3]; control animals, 70 mg/Kg DDC i.v. only", "result": "no significant binding"}
    ]}
  ]
}
